Test results published in patent US10633394B2, “Heterocyclic derivatives and use thereof” (C & C RESEARCH LABORATORIES, priority 2014, dated 2020).

Tests used:
Assay type in all cases: cell-based
MDA-MB-468 = assay: Cell growth inhibition assay (CellTiter-Glo), breast cancer cell line MDA-MB-468; details: Homo sapiens; MDA-MB-468 cells, 96 hours
Procedure: (§1) The inhibitory effects of the compounds of the present invention against the growth of cancer cells were evaluated as shown below. The cancer cell lines including stomach cancer cell line (NCI-N87) and breast cancer cell line (MDA-MB-468) were cultured under the protocol provided by each supplier. Each type of cells to be used in experiments was sub-cultured in a 96-well plate by counting the exact number of cells using Tali™ Image-based Cytometer (Life Technologies). In a 96-well plate, NCI-N87 was employed with 5,000 cells/well; and MDA-MB-468 was employed with 10,000 cells/well. The cells were treated with the compounds listed in Examples which were diluted in various concentrations. Upon completion of the compounds treatment, NCI-N87 cells were cultured at 37° C. under 5% CO2 for 96 hours, and MDA-MB-468 cells were cultured at 37° C. in air for 96 hours. Subsequently, the cells were observed under microscope and drug precipitation and particular findings were investigated and recorded. And then, the 96-well plate was placed at room temperature for 30 minutes, added with 20 μL/well of CellTiter-Glo solution (Cat No. G7573, Promega) and shaken for 10 minutes, followed by being subjected to the measurement using PHERAstar™ microplate reader (BMG LABTECH) according to the supplier's general luminometer protocol. Wells where only culture liquid added without cell plating were used as a negative control, whereas wells where culture liquid containing 0.1% DMSO instead of the compounds listed in Examples were used as a positive control.

STAT3 = biological target: T1, STAT3 (Homo sapiens, UniProt P40763); assay: STAT3 reporter gene (luciferase) assay in LNCaP stable cell line stimulated with IL-6; details: LNCaP stable cell line (pSTAT3-TA-luc), IL-6 10 ng/mL, 24 hours
T1 construct: plasmid pSTAT3-TA-luc), which contains a stably operating STAT3 promoter; endogenous in cells
Procedure: 1-1) Experiment on the Inhibition of STAT3 Activity
A human prostate cancer cell line (LNCaP stable cell line; plasmid pSTAT3-TA-luc), which contains a stably operating STAT3 promoter, was cultured in RPMI1640 medium (Cat No. 11875, Life Technologies) containing 10% fetal bovine serum (FBS) (Cat No. SH30396, Thermo Scientific) and 150 μg/mL G-418 solution (Cat No. 04 727 894 001, Roche). The reporter gene assay using LNCaP stable cell line was performed in RPMI1640 medium containing 3% DCC-FBS without G-418 solution. LNCaP stable cells were plated in two (2) white 96-well plates with 30,000 cells/50 μL in each well. The cells were cultured at 37° C., under 5% CO2 for 24 hours, and then treated with the compounds listed in Examples which were diluted in various concentrations. Subsequently, IL-6 was added to each well with a final concentration of 10 ng/mL. Upon completion of the treatment with the compounds and IL-6, the cells were cultured at 37° C., under 5% CO2 for 24 hours. The plates were observed under microscope and drug precipitation and particular findings were investigated and recorded.
The luciferase assay and the cell viability assay were performed respectively with one of the two plates. For the luciferase assay, the liquid media in the 96-well plate was removed, and then, 20 μL of passive cell lysis buffer was added to each well. After shaking the plate for 30 minutes, luciferase activities of each well were measured in a PHERAstar™ microplate reader (BMG LABTECH) using a luciferase assay system (Cat No. E1501, Promega). For the cell viability assay, the 96-well plate was placed at room temperature for 30 minutes, added with 20 μL/well of CellTiter-Glo solution (Cat No. G7573, Promega), and shaken for 10 minutes in order to measure cytotoxicity caused by the compounds listed in Examples with a PHERAstar™ microplate reader (BMG LABTECH). Wells without 0.1% DMSO and stimulation were used as a negative control and wells with 0.1% DMSO and stimulation were used as a positive control.
The results of evaluation on the inhibitory effect of the compounds listed in the Examples on the dimerization of STAT3 and STAT1 obtained via the STAT3 and STAT1 reporter gene assays are shown in Table 6 below.

NCI-N87 = assay: Cell growth inhibition assay (CellTiter-Glo), stomach cancer cell line NCI-N87; details: Homo sapiens; NCI-N87 cells, 96 hours
Procedure: as §1

T1 sequence (P40763 whole entry): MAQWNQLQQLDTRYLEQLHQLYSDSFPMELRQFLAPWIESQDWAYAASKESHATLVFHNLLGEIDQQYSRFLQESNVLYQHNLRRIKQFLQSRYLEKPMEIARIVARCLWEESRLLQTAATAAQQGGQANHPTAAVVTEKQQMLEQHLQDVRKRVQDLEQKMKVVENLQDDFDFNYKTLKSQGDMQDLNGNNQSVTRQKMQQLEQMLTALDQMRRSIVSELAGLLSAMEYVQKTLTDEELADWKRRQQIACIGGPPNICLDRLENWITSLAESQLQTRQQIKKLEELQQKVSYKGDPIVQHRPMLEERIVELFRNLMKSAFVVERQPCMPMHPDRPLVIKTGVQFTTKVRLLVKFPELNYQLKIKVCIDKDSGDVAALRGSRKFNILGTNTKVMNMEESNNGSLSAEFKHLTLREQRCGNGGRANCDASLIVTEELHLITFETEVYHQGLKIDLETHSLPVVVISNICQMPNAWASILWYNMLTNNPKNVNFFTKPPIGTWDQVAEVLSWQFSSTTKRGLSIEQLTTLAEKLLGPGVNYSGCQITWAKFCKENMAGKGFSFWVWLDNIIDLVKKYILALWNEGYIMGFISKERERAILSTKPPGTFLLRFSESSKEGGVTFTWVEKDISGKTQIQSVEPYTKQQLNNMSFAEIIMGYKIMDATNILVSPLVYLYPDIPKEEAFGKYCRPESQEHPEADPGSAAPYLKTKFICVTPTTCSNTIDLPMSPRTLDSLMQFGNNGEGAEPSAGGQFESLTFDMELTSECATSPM

Structure (SMILES)	IC50 (MDA-MB-468)	IC50 (STAT3)	IC50 (NCI-N87)
CS(=O)(=O)C1CCOc2cc3sc(C(=O)Nc4cc(Cl)nc(Oc5ccc(F)c(F)c5)c4)cc3cc21 (stereo not drawn) [Example 34, N-(2-chloro-6-(3,4-difluorophenoxy)pyridin-4-yl)-4-(methylsulfonyl)-3,4-dihydro-2H-thieno[3,2-g]chromene-7-carboxamide]	0.0023 µM	0.0064 µM	0.0092 µM
CS(=O)(=O)C1CCOc2cc3sc(C(=O)Nc4cc(Cl)nc(Oc5ccccc5OC(F)(F)F)c4)cc3cc21 (stereo not drawn) [Example 40, N-(2-chloro-6-(2-(trifluoromethoxy)phenoxy)pyridin-4-yl)-4-(methylsulfonyl)-3,4-dihydro-2H-thieno[3,2-g]chromene-7-carboxamide]	0.0086 µM	0.0087 µM	0.023 µM
COc1cc(Cl)ccc1Oc1cc(NC(=O)c2cc3cc4c(cc3s2)OCCC4S(C)(=O)=O)cc(Cl)n1 (stereo not drawn) [Example 42, N-(2-chloro-6-(4-chloro-2-methoxyphenoxy)pyridin-4-yl)-4-(methylsulfonyl)-3,4-dihydro-2H-thieno[3,2-g]chromene-7-carboxamide]	0.0078 µM	0.023 µM	0.024 µM
CS(=O)(=O)C1CCCc2cc3sc(C(=O)Nc4cc(Cl)nc(Oc5ccc(Cl)cc5)c4)cc3cc21 (stereo not drawn) [Example 10, N-(2-chloro-6-(4-chlorophenoxy)pyridin-4-yl)-5-(methylsulfonyl)-5,6,7,8-tetrahydronaphtho[2,3-b]thiophene-2-carboxamide]	0.0019 µM	0.0026 µM	0.006 µM
CS(=O)(=O)C1CCC(F)(F)c2cc3sc(C(=O)Nc4cc(Cl)nc(Oc5ccc(Cl)cc5)c4)cc3cc21 (stereo not drawn) [Example 14, N-(2-chloro-6-(4-chlorophenoxy)pyridin-4-yl)-8,8-difluoro-5-(methylsulfonyl)-5,6,7,8-tetrahydronaphtho[2,3-b]thiophene-2-carboxamide]	0.026 µM	0.029 µM	0.16 µM
CC1(S(C)(=O)=O)CCOc2cc3sc(C(=O)Nc4cc(Cl)nc(Oc5ccc(Cl)cc5)c4)cc3cc21 (stereo not drawn) [Example 11, N-(2-chloro-6-(4-chlorophenoxy)pyridin-4-yl)-4-methyl-4-(methylsulfonyl)-3,4-dihydro-2H-thieno[3,2-g]chromene-7-carboxamide]	0.0052 µM	0.006 µM	0.01 µM
CS(=O)(=O)C1CCOc2cc3sc(C(=O)Nc4cc(Cl)nc(Oc5ccc(OC(F)(F)F)cc5)c4)cc3cc21 (stereo not drawn) [Example 28, N-(2-chloro-6-(4-(trifluoromethoxy)phenoxy)pyridin-4-yl)-4-(methylsulfonyl)-3,4-dihydro-2H-thieno[3,2-g]chromene-7-carboxamide]	0.002 µM	0.0051 µM	0.0056 µM
CS(=O)(=O)C1CCOc2cc3sc(C(=O)Nc4cc(Cl)nc(Oc5ccc(Cl)cc5F)c4)cc3cc21 (stereo not drawn) [Example 23, N-(2-chloro-6-(4-chloro-2-fluorophenoxy)pyridin-4-yl)-4-(methylsulfonyl)-3,4-dihydro-2H-thieno[3,2-g]chromene-7-carboxamide]	0.0028 µM	0.0063 µM	0.0056 µM
CS(=O)(=O)C1CCOc2cc3sc(C(=O)Nc4cc(Cl)nc(Oc5ccc(Cl)c(F)c5)c4)cc3cc21 (stereo not drawn) [Example 19, N-(2-chloro-6-(4-chloro-3-fluorophenoxy)pyridin-4-yl)-4-(methylsulfonyl)-3,4-dihydro-2H-thieno[3,2-g]chromene-7-carboxamide]	0.0025 µM	0.0084 µM	0.0061 µM
Cc1cccc(Oc2cc(NC(=O)c3cc4cc5c(cc4s3)OCCC5S(C)(=O)=O)cc(Cl)n2)c1F (stereo not drawn) [Example 41, N-(2-chloro-6-(2-fluoro-3-methylphenoxy)pyridin-4-yl)-4-(methylsulfonyl)-3,4-dihydro-2H-thieno[3,2-g]chromene-7-carboxamide]	0.012 µM	0.011 µM	0.021 µM
CS(=O)(=O)C1CCOc2cc3sc(C(=O)Nc4cc(Cl)nc(Oc5ccc(C(F)(F)F)cc5)c4)cc3cc21 (stereo not drawn) [Example 17, N-(2-chloro-6-(4-(trifluoromethyl)phenoxy)pyridin-4-yl)-4-(methylsulfonyl)-3,4-dihydro-2H-thieno[3,2-g]chromene-7-carboxamide]	0.0023 µM	0.0039 µM	0.011 µM

The next lines start with the values.

IC50 (MDA-MB-468)	IC50 (STAT3)	IC50 (NCI-N87)	Structure (SMILES)
0.0029 µM	0.018 µM	0.015 µM	CS(=O)(=O)[C@H]1CCOc2cc3sc(C(=O)Nc4cc(Cl)nc(Oc5ccc(Cl)cc5)c4)cc3cc21 [Example 43, (S)—N-(2-chloro-6-(4-chlorophenoxy)pyridin-4-yl)-4-(methylsulfonyl)-3,4-dihydro-2H-thieno[3,2-g]chromene-7-carboxamide]
0.0029 µM	0.0078 µM	0.0049 µM	CS(=O)(=O)C1CCOc2cc3sc(C(=O)Nc4cc(Cl)nc(Oc5ccc(F)c(Cl)c5)c4)cc3cc21 (stereo not drawn) [Example 27, N-(2-chloro-6-(3-chloro-4-fluorophenoxy)pyridin-4-yl)-4-(methylsulfonyl)-3,4-dihydro-2H-thieno[3,2-g]chromene-7-carboxamide]
0.71 µM	5.2 µM	4.4 µM	O=C(Nc1cc(Cl)nc(Oc2ccc(Cl)cc2)c1)c1cc2cc3c(cc2s1)OCCC3N1CCCC1=O (stereo not drawn) [Example 53, N-(2-chloro-6-(4-chlorophenoxy)pyridin-4-yl)-4-(2-oxopyrrolidin-1-yl)-3,4-dihydro-2H-thieno[3,2-g]chromene-7-carboxamide]
0.12 µM	0.1 µM	0.4 µM	O=C(Nc1cc(Cl)nc(Oc2ccc(Cl)cc2)c1)c1cc2cc3c(cc2s1)OCCC3n1cccn1 (stereo not drawn) [Example 52, N-(2-chloro-6-(4-chlorophenoxy)pyridin-4-yl)-4-(1H-pyrazol-1-yl)-3,4-dihydro-2H-thieno[3,2-g]chromene-7-carboxamide]
0.0049 µM	0.011 µM	0.01 µM	CS(=O)(=O)C1CCOc2cc3sc(C(=O)Nc4cc(Cl)nc(Oc5cccc(Cl)c5)c4)cc3cc21 (stereo not drawn) [Example 25, N-(2-chloro-6-(3-chlorophenoxy)pyridin-4-yl)-4-(methylsulfonyl)-3,4-dihydro-2H-thieno[3,2-g]chromene-7-carboxamide]
0.0025 µM	0.0039 µM	0.0056 µM	CS(=O)(=O)[C@@]1(F)CCOc2cc3sc(C(=O)Nc4cc(Cl)nc(Oc5ccc(Cl)cc5)c4)cc3cc21 [Example 45, (S)—N-(2-chloro-6-(4-chlorophenoxy)pyridin-4-yl)-4-fluoro-4-(methylsulfonyl)-3,4-dihydro-2H-thieno[3,2-g]chromene-7-carboxamide]
> 0.1 µM	0.15 µM	0.79 µM	C[C@@]1(S(C)(=O)=O)CCOc2cc3sc(C(=O)Nc4cc(Cl)nc(Oc5ccc(Cl)cc5)c4)cc3cc21 [Example 48, (R)—N-(2-chloro-6-(4-chlorophenoxy)pyridin-4-yl)-4-methyl-4-(methylsulfonyl)-3,4-dihydro-2H-thieno[3,2-g]chromene-7-carboxamide]
0.078 µM	0.039 µM	1.2 µM	[N-]=[N+]=NC1CCOc2cc3sc(C(=O)Nc4cc(Cl)nc(Oc5ccc(Cl)cc5)c4)cc3cc21 (stereo not drawn) [Example 55, 4-azido-N-(2-chloro-6-(4-chlorophenoxy)pyridin-4-yl)-3,4-dihydro-2H-thieno[3,2-g]chromene-7-carboxamide]
